{
  "source": "ChEMBL document CHEMBL5579871",
  "about": "“Novel Papain-Like Protease Inhibitors for Treating Viral Infections, in particular, Coronavirus Infections” (ACS Med Chem Lett, 2024)",
  "data": [
    {"molecular_target": "Replicase polyprotein 1ab (Severe acute respiratory syndrome coronavirus 2, UniProt P0DTD1)", "assay": "Inhibition of SARS-CoV-2 papain-like protease using Z-RLRGG-AMC as fluorogenic substrate preincubated for 30 mins followed by substrate addition and measured after 60 mins by plate reader assay", "units": {"IC50": "nM"}, "values": [
      {"smiles": "Cc1ccc(N2CCN(C)CC2)cc1C(=O)N[C@H](C)c1cc(-c2cnn(C)c2)cc(-c2cc(Cl)cnc2N)c1", "IC50": 3},
      {"smiles": "Cc1ccc(N2CCN(C)CC2)cc1C(=O)N[C@H](C)c1cc(-c2cnn(C)c2)cc(-c2cccs2)c1", "IC50": 4},
      {"smiles": "Cc1cc(CNCc2cscn2)ccc1C(=O)N[C@H](C)c1cc(-c2cnn(C)c2)cc(-c2ccns2)c1", "IC50": 3},
      {"smiles": "Cc1cc(C(=O)NCc2cscn2)ccc1C(=O)N[C@H](C)c1cc(-c2cnn(C)c2)cc(-c2ccns2)c1", "IC50": 3},
      {"smiles": "Cc1ccc(NC(=O)[C@H]2CCCCN2)cc1C(=O)N[C@H](C)c1cc(-c2cnn(C)c2)cc(-c2cccs2)c1", "IC50": 4},
      {"smiles": "Cc1ccc(N2CCNCC2)cc1C(=O)N[C@H](C)c1cc(-c2cnn(C)c2)cc(-c2cc(Cl)cnc2N)c1", "IC50": 4}
    ]}
  ]
}
